Results as given in patent US5734081A, “Arylthio compounds” (Warner-Lambert Company, priority 1995, dated 1998).
pEC50: −log10 of the molar value.

What was measured:
[1] = biological target: T1, HIV-1 Nucleocapsid Protein (NCp7) (Human immunodeficiency virus type 1 group M subtype B, UniProt P12493); test: Zinc extrusion assay (TSQ fluorescence) from the zinc fingers of HIV-1 nucleocapsid protein (NCp7); type: biochemical
T1 construct: The NCp7 protein containing 2 Zn-fingers and 2 Zn ions is incubated with drug
Description: The compounds of the present invention cause the extrusion of zinc from the nucleocapsid protein (NCp7) of HIV-1. The NC protein is highly conserved among all retroviruses (South T., Blake P., et al., Biochemistry, 1990;29:7786) and is essential for viral infectivity (Aldovini A. and Young R., J. Virology, 1990;64:1920 and Gorelick R., Nigida S., et al., J. Virology, 1990;64:3207). The zinc is normally held in NC proteins by 1 or 2 zinc fingers. In the case of HIV-1, 2 zinc fingers are present (Summers M., South T., et al., Biochemistry, 1990;29:329) and are involved specifically with the PSI site on viral RNA which controls the packaging of viral RNA. Interference of this packaging causes the formation of non-infectious virions (Dannull J., Surovoy A., et al., EMBO, 1994;13:1525). It has previously been shown that compounds that cause zinc extrusion have potent anti-HIV activity in multiple cell lines and against all retroviruses (Rice W., Schaeffer C., et al., Nature, 1993;361:473).
A fluorescence-based assay has been developed to monitor the ejection of zinc from purified HIV-1 NCp7. The fluorophore, N-(6-methoxy-8-quinolyl)-p-toluenesulfonamide (TSQ), has an increased fluorescent signal upon bonding zinc ion in solution. The NCp7 protein containing 2 Zn-fingers and 2 Zn ions is incubated with drug causing the extrusion of Zn ions. The released Zn is then sequestered by the TSQ and the increased fluorescence monitored relative to control. […] Fluorescence (excitation 355 nm emission 400 nm) was monitored versus time. Controls were the NCp7 under assay conditions without drug, and apo NCp7 (no Zn) with drug. The % Zn extrusion was calculated based on the actual fluorescence measured divided by the fluorescence of all theoretical Zn extruded (5.6 μM)×100.
Table 1 below presents data for several invention compounds evaluated in the zinc extrusion assay described above.

[2] = CEM cell growth inhibition (XTT, noninfected cells); type: cell-based; conditions: human, CEM Cell Assay, drug alone, read-out: IC50 (Inhibitory Concentration where drug alone inhibits cell growth)
Protocol: (§1) Yet another test system employed to determine antiviral activity is called the CEM cell assay.
(§2) T4 lymphocytes (CEM cell line) are exposed to HIV at a virus to cell ratio approximately 0.05, and plated along with noninfected control cells in 96-well microliter plates.
(§3) The candidate agent is dissolved in dimethyl sulfoxide (unless otherwise noted), then diluted 1:200 in cell culture medium. Further dilutions (half-log10) are prepared before adding to an equal volume of medium containing either infected or noninfected cells. Cultures are incubated at 37° in a 5% carbon dioxide atmosphere for 6 or 7 days. The tetrazolium salt, XTT, is added to all wells, and cultures are incubated to allow formazan color development by viable cells (J. National Cancer Institute, 1989;81:577-586). Individual wells are analyzed spectrophotometrically to quantitate formazan production, and in addition are viewed microscopically for detection of viable cells confirmation of protective activity.
(§4) Drug-tested virus-infected cells are compared with drug-treated noninfected cells and with other appropriate controls (untreated infected and untreated noninfected cells, drug-contain wells without cells, etc.) on the same plate. Data are reviewed in comparison with other tests done at the same time and a determination about activity is made.

HIV-1 = test: CEM cell assay, anti-HIV-1 activity; type: cell-based; conditions: Human immunodeficiency virus 1, CCRF-CEM, HIV-1, 6 or 7 days, read-out: EC50 (Effective Concentration which protects cells from viral cytopathic effects)
Description: The test systems utilized to establish the antiviral activity of the arylthio compounds of this invention are well recognized in the art and are routinely employed for such purpose. For example, the assay utilized to evaluate the compounds activity against the HIV virus is that employed by the U.S. National Cancer Institute as described by Weislow O. S., et al., J. Natl. Cancer Inst., 1989;81:577-586, incorporated herein by reference.
The procedure is designed to detect agents acting at any stage of the virus reproductive cycle. The assay basically involves the killing of T4 lymphocytes by HIV. Small amounts of HIV are added to cells, and at least two complete cycles of virus reproduction are necessary to obtain the required cell killing. Agents which interact with virions, cells, or virus gene-products to interfere with viral activities will protect cells from cytolysis. The system is automated in several features to accommodate large numbers of candidate agents, and is generally designed to detect anti-HIV activity. However, compounds which degenerate or are rapidly metabolized in the culture conditions may not show activity in this screen.
as §1, §2, §3, §4

[3] = 10 μM compound, 2.8 μM NCp7, pH 7.4, 26° C., 90 minutes

| SMILES | % Zinc Extrusion Relative to Control ([1]; EDTA, 24 hours) [%] | % Zinc Extrusion Relative to Control [1, 3] [%] | CC50 [2] [µM] | pEC50 (HIV-1) |
| --- | --- | --- | --- | --- |
| O=C(O)CN(CCN(CC(=O)O)CC(=O)O)CC(=O)O [EDTA, reference compound] | 10 |  |  |  |
| CC(C)NS(=O)(=O)c1ccc(NC(=O)c2ccccc2SSc2ccccc2C(=O)Nc2ccc(S(=O)(=O)NC(C)C)cc2)cc1 [Example 3, 2,2'-Dithiobis-N-[4[[(1-methylethyl)amino]sulfonyl]phenyl]benzamide] |  | 73 |  |  |
| NS(=O)(=O)c1ccc(NC(=O)c2ccc(F)cc2SSc2cc(F)ccc2C(=O)Nc2ccc(S(N)(=O)=O)cc2)cc1 [Example 16, 2,2'-Dithiobis[N-[4-(aminosulfonyl)phenyl]-4-fluorobenzamide]] |  |  | 66 | 5.60 |
| COc1cccc(C(=O)Nc2ccc(S(N)(=O)=O)cc2)c1SSc1c(OC)cccc1C(=O)Nc1ccc(S(N)(=O)=O)cc1 [Example 18, 2,2'-Dithiobis[N-[4-(aminosulfonyl)phenyl]-3-methoxybenzamide]] |  | 67 |  |  |
| COc1ccc(C(=O)Nc2ccc(S(N)(=O)=O)cc2)c(SSc2cc(OC)ccc2C(=O)Nc2ccc(S(N)(=O)=O)cc2)c1 [Example 19, 2,2'-Dithiobis[N-[4-(aminosulfonyl)phenyl]-4-methoxybenzamide]] |  |  | > 100 | 5.62 |
| Cc1ccc(SSc2ccc(C)cc2C(=O)Nc2ccc(S(N)(=O)=O)cc2)c(C(=O)Nc2ccc(S(N)(=O)=O)cc2)c1 [Example 23, 2,2'-Dithiobis[N-[4-(aminosulfonyl)phenyl]-5-methylbenzamide]] |  |  | > 100 | 5.37 |
| NS(=O)(=O)c1ccc(NC(=O)c2cccnc2SSc2ncccc2C(=O)Nc2ccc(S(N)(=O)=O)cc2)cc1 [Example 25, 2,2'-Dithiobis[N-[4-(aminosulfonyl)phenyl]-3-pyridinecarboxamide]] |  | 73 |  |  |
| CC(C)(C)[C@H](NC(=O)c1ccccc1SSc1ccccc1C(=O)N[C@H](C(=O)O)C(C)(C)C)C(=O)O [Example 48, L,L-2-{2-[2-(1-Carboxy-2,2-dimethyl-propylcarbamoyl)-phenyldisulfanyl]-benzoylamino}-3,3-dimethyl-butyric acid] |  |  | > 100 | 4.74 |
| CC(C)C[C@H](NC(=O)c1ccc(F)cc1SSc1cc(F)ccc1C(=O)N[C@@H](CC(C)C)C(=O)O)C(=O)O [Example 51, [S-(R*,R*)]2-{2-[2-(1-Carboxy-3-methyl-butylcarbamoyl)-5-fluoro-phenyldisulfanyl]-4-fluorobenzoylamino}-4-methyl-pentanoic acid] |  |  | 64 | 5.08 |
| COc1ccc(C(=O)N[C@@H](CC(C)C)C(=O)O)c(SSc2cc(OC)ccc2C(=O)N[C@@H](CC(C)C)C(=O)O)c1 [Example 54, [S-(R*,R*)]2-{2-[2-(1-Carboxy-3-methyl-butyl]carbamoyl)-5-methoxy-phenyldisulfanyl]-4-methoxybenzoylamino}-4-methyl-pentanoic acid] |  |  | 75 | 5.16 |
| Cc1cccc(C(=O)N[C@@H](CC(C)C)C(=O)O)c1SSc1c(C)cccc1C(=O)N[C@@H](CC(C)C)C(=O)O [Example 56, [S-(R*,R*)]2-{2-[2-(1-Carboxy-3-methyl-butylcarbamoyl)-6-methyl-phenyldisulfanyl]-3-methyl-benzoylamino}-4-methyl-pentanoic acid] |  | 73 |  |  |
| Cc1ccc(C(=O)N[C@@H](CC(C)C)C(=O)O)c(SSc2cc(C)ccc2C(=O)N[C@@H](CC(C)C)C(=O)O)c1 [Example 57, [S-(R*,R*)]2-{2-[2-(1-Carboxy-3-methyl-butylcarbamoyl)-5-methyl-phenyldisulfanyl]-4-methylbenzoylamino}-4-methyl-pentanoic acid] |  |  | 71 | 5.22 |
| CC(=O)Nc1ccc(SSc2ccc(NC(C)=O)cc2C(=O)N[C@@H](CC(C)C)C(=O)O)c(C(=O)N[C@@H](CC(C)C)C(=O)O)c1 [Example 60, [S-(R*,R*)]2-{5-Acetylamino-2-[4-acetylamino-2-(1-carboxy-3-methyl-butylcarbamoyl)-phenyldisulfanyl]-benzoylamino}-4-methyl-pentanoic acid] |  | 65 |  |  |
| O=C(O)C[C@H](NC(=O)c1ccccc1SSc1ccccc1C(=O)N[C@@H](CC(=O)O)C(=O)O)C(=O)O [Example 62, L,L-2-{2-[2-(1,2-Dicarboxy-ethylcarbamoyl)-phenyldisulfanyl]-benzoylamino}-succinic acid] |  | 73 |  |  |
| COc1ccc(SSc2ccc(OC)cc2C(N)=O)c(C(N)=O)c1 [Example 70, 2,2'-Dithiobis[5-methoxy-benzamide]] |  | 74 |  |  |
| CC(C)(C)C(=O)Nc1ccc(SSc2ccc(NC(=O)C(C)(C)C)cc2C(N)=O)c(C(N)=O)c1 [Example 73, 2,2'-Dithiobis[5-[(2,2-dimethyl-1-oxopropyl)amino]benzamide]] |  |  | 70 | 5.30 |
| O=C(Nc1ccc(Cl)cc1Cl)c1ccccc1SSc1ccccc1C(=O)Nc1ccc(Cl)cc1Cl [Example 84, 2,2'-Dithiobis[N-(2,4-dichlorophenyl)benzamide]] |  | 50 |  |  |
| CS(=O)(=O)c1ccc(NC(=O)c2ccccc2SSc2ccccc2C(=O)Nc2ccc(S(C)(=O)=O)cc2)cc1 [Example 94, 2,2'-Dithiobis[N-[4-(methylsulfonyl)phenyl]benzamide]] |  | 62 |  |  |
| NS(=O)(=O)c1ccccc1NC(=O)c1ccccc1SSc1ccccc1C(=O)Nc1ccccc1S(N)(=O)=O [Example 102, 2,2'-Dithiobis[N-[2-(aminosulfonyl)phenyl]benzamide]] |  |  | 68 | 5.77 |
| O=C(O)c1ccc(NC(=O)c2ccccc2SSc2ccccc2C(=O)Nc2ccc(C(=O)O)cc2)cc1 [Example 106, 4,4'-[dithiobis(2,1-phenylenecarbonylimino)bisbenzoic acid]] |  |  | 22 | 5.74 |
| O=C(O)Cc1ccc(NC(=O)c2ccccc2SSc2ccccc2C(=O)Nc2ccc(CC(=O)O)cc2)cc1 [Example 108, (4-{2-[2-(4-Carboxymethyl-phenylcarbamoyl)-phenyldisulfanyl]-benzoylamino}-phenyl)-acetic acid] |  |  | 61 | 5.23 |
| O=C(c1ccccc1SSc1ccccc1C(=O)N1CCSCC1)N1CCSCC1 [Example 113, {2-[2-(Thiomorpholine-4-carbonyl)-phenyldisulfanyl]phenyl}-thiomorpholin-4-yl-methanone] |  | 67 |  |  |
| COC(=O)c1ccccc1SSc1ccccc1C(=O)Nc1ccc(S(N)(=O)=O)cc1 [Example 137, 2-[2-(4-Sulfamoylphenylcarbamoyl)phenyldisulfanyl]benzoic acid, methyl ester] |  |  | 65 | 5.07 |
| NS(=O)(=O)c1ccc(NS(=O)(=O)c2ccccc2SSc2ccccc2S(=O)(=O)Nc2ccc(S(N)(=O)=O)cc2)cc1 [Example 145] |  | 65 |  |  |
| O=C(c1ccccc1)c1ccccc1SSc1ccccc1C(=NO)c1ccccc1 [Example 150, {2-[2-(hydroxyimino-phenyl-methyl)-phenyldisulfanyl]phenyl}-phenyl-methanon] |  | 36 |  |  |
